Source: patent US5399562A, “Indolones useful as serotonergic agents” (G. D. Searle & Co., priority 1994, dated 1995)
Structures can show the parent of a compound that is named as a salt.

Legend:
5-HT4 receptor [1] = target: 5-HT4 receptor (Rattus norvegicus, UniProt Q62758); assay: cell-based; settings: rat esophagus TMM contracted with carbachol (3 μM), 37° C., cumulative addition; read-out: 5-HT4 Agonism (Rat TMM) In Vitro Assay: EC50 values
Method: (§1) The 5-HT4 agonist activity was determined in the in vitro rat tunica muscularis mucosae (TMM) assay described herein. (Baxter et al., Naunyn Schmied Arch. Pharmacol, 1991, 343, 439). […] One with skill in the art could determine the activity of the compounds of the present invention using the methodology of these assays, described herein, without undue experimentation.
Agonist activity was determined utilizing relaxation of carbachol-contracted rat tunica muscularis mucosae (TMM). One 2 cm segment of intrathoracic esophagus proximal to the diaphragm was removed from male rats, weighing approximately 300 gm, and the outer muscle layers removed. The inner tunica muscularis mucosa was mounted under 0.2-0.3 g of tension in a tissue bath containing oxygenated Tyrode's solution at 37° C. […] Following a 30 min equilibrium period, tissues were isometrically contracted with carbachol (3 μM) to obtain a tonic contraction. A stable plateau was obtained within 20 min when test compound was added cumulatively to relax the muscle strip. EC50 values were obtained for each compound in tissues from 5 rats.

man [2] = settings: Talley et al. 1989, man; cited from earlier work
man [3] = settings: Gore et al. 1990, man; cited from earlier work
gastric emptying [4] = settings: Gidda et al. 1988; cited from earlier work
5-HT3 receptor = target: T1, 5-HT3 receptor (Rattus norvegicus, UniProt P35563); assay: 5-HT3 radioligand receptor binding assay ([3H]-GR65630), rat brain cortex membranes
T1 construct: Brain cortices were obtained from male rats and a membrane fraction prepared by standard techniques; from tissue; host or cells: male rat brain cortex membranes
T1 sequence (P35563 24-483): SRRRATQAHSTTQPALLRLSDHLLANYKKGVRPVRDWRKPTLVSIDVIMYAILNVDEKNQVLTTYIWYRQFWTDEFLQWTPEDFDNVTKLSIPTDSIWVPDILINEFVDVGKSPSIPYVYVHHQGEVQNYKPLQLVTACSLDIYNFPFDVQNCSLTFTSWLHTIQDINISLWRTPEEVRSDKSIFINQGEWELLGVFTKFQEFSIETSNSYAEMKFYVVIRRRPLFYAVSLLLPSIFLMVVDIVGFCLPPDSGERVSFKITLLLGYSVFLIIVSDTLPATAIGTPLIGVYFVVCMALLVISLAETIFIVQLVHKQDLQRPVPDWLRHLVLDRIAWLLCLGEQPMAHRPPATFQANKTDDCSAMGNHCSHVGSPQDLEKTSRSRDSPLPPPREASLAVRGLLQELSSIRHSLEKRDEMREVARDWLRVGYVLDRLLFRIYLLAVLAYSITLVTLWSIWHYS
Method: as §1
Procedure: GR65630 binds to the 5-HT3 receptor. Brain cortices were obtained from male rats and a membrane fraction prepared by standard techniques. 0.04 mg of membrane prep was incubated with 0.2 nM [^3 H]-GR65630 for 66 minutes at 22° C. […] Membranes were filtered and washed 3 times and the filters were counted to determine [^3 H]-GR65630 specifically bound. [Kilpatrick GJ, Jones BJ and Tyers MB, Identification and Distribution of 5-HT3 Receptors in Rat Brain Using Radioligand Binding Assay, Nature, 330, 746-748 (1987)].

[5] = test system: guinea pig stomach muscle strips; settings: cited from earlier work; for guinea pig stomach muscle strip contraction in vitro: Buchheit et al. 1985
gastric emptying [6] = settings: Buchheit et al. 1985; cited from earlier work
dogs = settings: cited from earlier work; for antroduodenal motility in dogs: Van Nueten et al. 1989
GI tract = settings: various animal models; cited from earlier work
5-HT4 receptors = settings: Craig and Clarke; cited from earlier work
5-HT3 = settings: in vivo; cited from earlier work
myenteric neurons = settings: Nemeth and Gullikson 1989; cited from earlier work
5-HT4 receptor [7] = settings: Dumuis et al. 1989, mouse embryonic colliculi neurons; cited from earlier work

Chain of 5-HT4 receptor (Rattus norvegicus, UniProt Q62758) (Q62758 whole entry): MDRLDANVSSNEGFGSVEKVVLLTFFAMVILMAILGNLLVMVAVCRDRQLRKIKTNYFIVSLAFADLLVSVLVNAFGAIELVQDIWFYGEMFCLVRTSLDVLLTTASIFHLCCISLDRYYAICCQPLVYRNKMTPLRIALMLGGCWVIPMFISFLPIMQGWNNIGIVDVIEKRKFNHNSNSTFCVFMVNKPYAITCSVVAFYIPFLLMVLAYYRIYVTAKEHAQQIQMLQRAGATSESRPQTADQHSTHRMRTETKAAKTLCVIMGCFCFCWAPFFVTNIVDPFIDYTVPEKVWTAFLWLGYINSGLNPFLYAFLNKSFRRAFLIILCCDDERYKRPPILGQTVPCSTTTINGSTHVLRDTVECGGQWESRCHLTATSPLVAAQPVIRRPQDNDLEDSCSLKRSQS

Molecule `O=C(NCCC12CCCN1CCC2)N1C(=O)C2(CC2)c2ccccc21` [Example 7, 2'-oxo-N-[2-(hexahydro-1H-pyrrolizin-7a(5H)yl)ethyl]spiro[cyclopropane-1,3'-[3'H]indole-1'(2'H)-carboxamide, monohydrochloride] has an EC50 (5-HT4 receptor [1]) of 7920 nM.
In the case of `Cc1nccn1CC1CCc2c(c3ccccc3n2C)C1=O` (centres unmarked) [GR38032], the “effect on GI transit in man (conclusion)” value (man [2]) is given as “does not have a major effect on GI transit in man”, the mouth-to-cecum transit times (man [2]) is given as “did not alter” and the “small intestinal transit times” value (man [2]) is given as “did not alter”. The GI transit (man [3]) was “failed to accelerate”, the “colonic transit in man” value (man [3]) was “slowed” and the gastric emptying (gastric emptying [4]) was “enhanced”.
`O=C(N[C@@H]1[C@@H]2CC3C[C@H]1CN(C3)C2)N1C(=O)C2(CC2)c2ccccc21` [Example 3, Anti-N-(1-azatricyclo[3.3.1.1^3,7]decan-4-yl)-2'-oxo-spiro[cyclopropane-1,3'-[3'H]indole]-1'(2'H)-carboxamide, monohydrochloride] showed an EC50 (5-HT4 receptor [1]) of 2220 nM.
Molecule `CN1[C@@H]2CC[C@H]1C[C@@H](NC(=O)N1C(=O)C3(CC3)c3ccccc31)C2` [Example 2, Endo-1',2'-dihydro-N-(8-methyl-8-azabicyclo[3.2.1 octan-3-yl)-2'-oxo-spiro[cyclopropane-1,3'-(3'H)-indole]-1'-carboxamide, hydrate hydrochloride] has a Ki (5-HT3 receptor) of 4.1 nM and an EC50 (5-HT4 receptor [1]) of 790 nM.
In the case of `CN1[C@@H]2CC[C@H]1C[C@@H](OC(=O)c1cc(Cl)cc(Cl)c1)C2` [MDL 72222], the “guinea pig stomach muscle strip contraction in vitro” value [5] is listed as “enhanced” and the “gastric emptying rates in vivo” value (gastric emptying [6]) is listed as “increases”.
For `Cc1[nH]cnc1CCC(=O)c1cn(C)c2ccccc12` [GR65630], the Bmax (5-HT3 receptor; [3H]-GR65630 radioligand, rat brain cortex membranes) was 154 fmol/mg protein and the “% Specific Binding” value (5-HT3 receptor; [3H]-GR65630 radioligand, non-specific binding with 1 uM ICS 205-930) was 70%.
For `CN1[C@@H]2CC[C@H]1C[C@@H](OC(=O)c1c[nH]c3ccccc13)C2` [ICS 205-930], the “guinea pig stomach muscle strip contraction in vitro” value [5] is given as “enhanced”, the “gastric emptying rates in vivo” value (gastric emptying [6]) is given as “increases” and the gastric emptying (gastric emptying [4]) is given as “enhanced”. The “effect on responses to cisapride when coadministered” value (dogs; Van Nueten et al. 1989, coadministered with cisapride) was “did not affect” and the “antroduodenal motility in dogs” value (dogs) was “did not”.
In the case of `NCCc1c[nH]c2ccc(O)cc12` [Serotonin, 5-hydroxytryptamine], the “peristalsis in the GI tract” value (GI tract) is listed as “promote peristalsis” and the “peristaltic reflex evoked, receptor mechanism” value (5-HT4 receptors) is listed as “mediated through agonism at 5-HT4 receptors”.
With `O=C(NCC12CCN(CC1)CC2)N1C(=O)C2(CC2)c2ccccc21` [Example 5, N-(1-azabicyclo[2.2.2]octan-4-ylmethyl)-2'-oxo-spiro[cyclopropane-1,3'-[3'H]indole]-1'(2'H)-carboxamide, monohydrochloride] the EC50 (5-HT4 receptor [1]) was > 10000 nM.
For `CC1(C)C(=O)N(C(=O)NC[C@@H]2CCN3CCC[C@@H]23)c2ccccc21` (relative stereo) [Example 8, Exo-2,3-dihydro-3,3-dimethyl-N-[(hexahydro-1H-pyrrolizin-1S-yl)methyl]-2-oxo-1H-indole-1carboxamide, hydrate hydrochloride], the EC50 (5-HT4 receptor [1]) was > 10000 nM.
In the case of `CCN(CC)CCNC(=O)c1cc(Cl)c(N)cc1OC` [metoclopramide], the “guinea pig stomach muscle strip contraction in vitro” value [5] is listed as “enhanced”, the “electrical-field stimulated contractions in guinea pig stomach strips” value ([5]; Gunning and Naylor 1985) is listed as “enhanced” and the “gastric emptying rates in vivo” value (gastric emptying [6]) is listed as “increases”. The “5-HT3-mediated Bezold Jarisch reflex” value (5-HT3) was “blocks”.
Work on `O=C(N[C@H]1[C@@H]2CC3C[C@H]1CN(C3)C2)N1C(=O)C2(CC2)c2ccccc21` [Example 4, Syn-N-(1-azatricyclo[3.3.1.1^3,7]decan-4-yl)-2'-oxo-spiro[cyclopropane-1,3'-[3'H]indole]-1'(2'H)-carboxamide, monohydrochloride] yielded an EC50 (5-HT4 receptor [1]) of 2530 nM.
Molecule `CN1[C@@H]2CC[C@H]1C[C@@H](NC(=O)N1C(=O)C(C)(C)c3ccccc31)C2` [Example 1, Endo-2,3-dihydro-3,3-dimethyl-N-(8-methyl-8-azabicyclo[3.2.1]octan-3-yl)-2-oxo-1H-indole-1-carboxamide, hydrochloride hydrate] has a Ki (5-HT3 receptor) of 4 nM and an EC50 (5-HT4 receptor [1]) of 1210 nM.
For `COc1cc(N)c(Cl)cc1C(=O)NC1CCN(CCCOc2ccc(F)cc2)CC1OC` (centres unmarked) [Cisapride], the “ability to depolarize myenteric neurons, relation to 5-HT3 antagonism” value (myenteric neurons) is given as “unrelated to their properties of 5-HT3 antagonism”, the “antroduodenal motility in dogs” value (dogs) is given as “enhanced” and the “prokinetic activity, correlation with agonist activity at 5-HT4 receptor” value (5-HT4 receptor [7]) is given as “correlate with agonist activity”.
For `COc1cc(N)c(Cl)cc1C(=O)NC1CN2CCC1CC2` (centres unmarked) [zacopride], the gastric emptying (gastric emptying [4]) is listed as “enhanced”.
In the case of `COc1cc(N)c(Cl)cc1C(=O)NC1CCN2CCCC1C2` (centres unmarked) [BRL-24924], the “ability to depolarize myenteric neurons, relation to 5-HT3 antagonism” value (myenteric neurons) is given as “unrelated to their properties of 5-HT3 antagonism”, the “prokinetic activity, correlation with agonist activity at 5-HT4 receptor” value (5-HT4 receptor [7]) is given as “correlate with agonist activity” and the “peristaltic reflex evoked, receptor mechanism” value (5-HT4 receptors) is given as “mediated through agonism at 5-HT4 receptors”.
For `O=C(NCC12CCCN1CCC2)N1C(=O)C2(CC2)c2ccccc21` [Example 6, 2'-oxo-N-[(hexahydro-1H-pyrrolizin-7a(5H)-yl)-methyl]spiro[cyclopropane-1,3'-[3'H]indole]1'(2'H)carboxamide, monohydrochloride], the EC50 (5-HT4 receptor [1]) was > 10000 nM.
